The results in this text go back to patent publication US7396666B2, “Glycosyltransferase, nucleic acid encoding the glycosyltransferase and method of testing canceration using the nucleic acid” (National Institute of Advanced Industrial Science and …, priority 2002, dated 2008).

Entries after “also recorded” stand apart in the source; their conditions may differ. Read-outs that look alike come from different tables or passages of the source.

Holding throughout (assay type): biochemical
Assay [1] deals with T1, G9 polypeptide (Homo sapiens, UniProt Q7Z7M8).
T1 construct: made in house
T1 sequence (Q7Z7M8 26-397): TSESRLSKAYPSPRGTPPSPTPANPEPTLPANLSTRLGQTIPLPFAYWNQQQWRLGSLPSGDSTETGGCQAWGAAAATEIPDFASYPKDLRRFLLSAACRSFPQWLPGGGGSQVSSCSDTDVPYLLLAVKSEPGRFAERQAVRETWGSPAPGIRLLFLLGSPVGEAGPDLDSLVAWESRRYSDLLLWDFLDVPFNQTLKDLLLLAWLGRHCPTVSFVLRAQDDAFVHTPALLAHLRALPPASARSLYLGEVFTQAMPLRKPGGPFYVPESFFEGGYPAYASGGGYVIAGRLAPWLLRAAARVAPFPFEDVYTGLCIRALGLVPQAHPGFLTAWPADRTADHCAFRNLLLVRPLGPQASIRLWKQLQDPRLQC
Briefly: Divalent metal ion requirement of G9 enzyme activity.

The target of assay [2] is T1, G9 polypeptide. Briefly: β1,3-N-acetylglucosaminyltransferase activity with synthetic mono-/oligosaccharide acceptor substrates ([14C]UDP-GlcNAc donor, scintillation counting). The conditions noted are these: for transferring activity for acceptor substrate (in words): GlcNAc transfer by G9 to synthetic acceptor substrates; for Relative activity: Substrate specificity of G9, 10 μM acceptor substrate, UDP-GlcNAc donor, 37° C., usually 16 hours, ND = not detected. The method, then: The FLAG peptide-fused G9 polypeptide obtained in the example above was measured for a β1,3-N-acetylglucosaminyltransferase activity with monosaccharaide/oligosaccharide/glycolipid/glycoprotein as substrates according to known methods (e.g., the above-described references and FEBS, 462, 289 (1999), J. Biol. Chem. 269, 14730-14737 (1994), J. Biol. Chem., 267, 23507 (1992), and J. Biol. Chem., 267, 2994 (1992)).
pNp-α-Glc, pNp-β-Glc, pNp-α-GlcNAc, pNp-β-GlcNAc, pNp-α-Gal, oNp-β-Gal, pNp-α-GalNAc, pNp-α-Xyl, oNp-β-Xyl, pNp-α-Fuc, Bz-α-Man, Bz-α-ManNAc, core1-α-pNp, core3-α-pNp, Bz-β-lactoside, GlcNAcβ1-4GlcNAcβ-Bz, and Galβ1-4GlcNAcα-pNp were used as acceptor substrates (see Table 5). These substrates can be purchased from, for example, Sigma Corp. or Toronto Research Chemicals Inc.
A basic reaction solution in the case of using a radiolabeled substrate as the donor substrate comprises 20 μl in total of 14 mM HEPES buffer (pH 7.4), 10 mM MnCl2, 0.15% Triton CF-54, 0.75 mM ATP, 50 μM UDP-GlcNAc (manufactured by Sigma), 4.5 μM (50 nCi) [^14C]UDP-GlcNAc (manufactured by Amersham Biosciences), 10 μM substrate (each of the above-described acceptor substrates), and an appropriate amount (5 to 10 μl) of the purified enzyme protein (enzyme source obtained in Example 4). Enzyme reaction was carried out at 37° C. for several hours up to 16 hours (usually for 16 hours).
After the completion of reaction, the resulting solution was supplemented with 200 μl of 0.1M KCl and lightly centrifuged, and then a supernatant was obtained. After being washed once with 10 ml of methanol, the supernatant was loaded onto Sep-Pak C18 Cartridge (Waters) equilibrated by two-time washing with 10 ml of 0.1 M KCl, and the substrate and a product in the supernatant were adsorbed in the cartridge. After the cartridge was washed twice with 1 ml of pure water for HPLC, the adsorbed substrate and product were eluted with 1 ml of methanol. Following the mixing with a liquid scintillator (ACSII; manufactured by Amersham Biosciences), the amount of radiation from the product was measured with a scintillation counter.

Assay [3] concerns the target T1, G9 polypeptide. Briefly: Buffer and pH dependence of G9 enzyme activity. The method, then: Buffer conditions were investigated using the same reaction solution and reaction time as above but using HEPES (pH 6.75 to 7.4) and sodium cacodylate (pH 6.4 to 7.2) instead of 14 mM HEPES buffer (pH7.4) (see FIG. 2A).
The target of assay [4] is T1, G9 polypeptide. Briefly: Activity measurement with glycoproteins as acceptor substrates (SDS-PAGE, autoradiography, glycopeptidase F digestion). The conditions noted are these: 40 μg acceptor glycoprotein, 37° C., FIG. 4. The protocol:
Enzyme reaction was carried out with glycoproteins as substrates. A reaction solution comprised 20 μl in total of 14 mM HEPES buffer (pH 7.4), 10 mM MnCl2, 0.15% Triton CF-54, 0.75 mM ATP, 50 μM UDP-GlcNAc (manufactured by Sigma), 4.5 μM (50 nCi) [^14C]UDP-GlcNAc (manufactured by Amersham Biosciences), 40 μg of an acceptor substrate, and an appropriate amount (5 to 10 μl) of a purified enzyme protein. A αl-acid glycoprotein (orosomucoid; manufactured by Sigma), ovalbumin (manufactured by Sigma), or ovomucoid (manufactured by Sigma) was used as the above described acceptor substrate. The enzyme purified with the anti-FLAG M1 antibody affinity gel in Example 4 was used as the above-described purified enzyme protein.
Reaction was carried out at 37° C. for several hours up to 16 hours. A portion of a reaction product was subjected to enzyme digestion with glycopeptidase F (GPF; manufactured by TAKARA) according to the instruction. The samples both before and after enzyme digestion were analyzed by 10% SDS-PAGE (see FIG. 4).

The mark [5] stands for this setting: metal ions at 2.5, 10 and 40 mM instead of 10 mM MnCl2, FIG. 2B.

In the case of `[Cl][Cd][Cl]` [Cd, CdCl2], the “effect of divalent metal ion on G9 activity (in words)” value (shortened to “effect of divalent metal ion”) on G9 polypeptide [1] (setting [5]) was “slight enhancing effect”. As to `[Cl-].[Cl-].[Co+2]` [Co ion, CoCl2], the “effect of divalent metal ion” value on G9 polypeptide [1] is “significantly enhanced”. With `CC(=O)N[C@H]1[C@@H](Oc2ccc([N+](=O)[O-])cc2)O[C@H](CO)[C@@H](O[C@@H]2O[C@H](CO)[C@H](O)[C@H](O)[C@H]2O)[C@@H]1O` [Galβ1-4GlcNAcα-pNP], at G9 polypeptide [2], the “transferring activity for acceptor substrate (in words)” value was “particularly strong activity; also recorded: highest transferring activity” and the Relative activity was determined as 100%. For `OC[C@H]1O[C@@H](O[C@H]2[C@H](O)[C@@H](O)[C@H](OCc3ccccc3)O[C@@H]2CO)[C@H](O)[C@@H](O)[C@H]1O` [Lactoside β-Bz], at G9 polypeptide [2] (listed as Bz-β-lactoside), the “transferring activity for acceptor substrate (in words)” value is reported as “significant activity; also recorded: a certain amount of transferring activity”. Moreover, the Relative activity at G9 polypeptide [2] is 27%. For `[Cl-].[Cl-].[Mg+2]` [Mg, MgCl2], the “effect of divalent metal ion” value on G9 polypeptide [1] (setting [5]) was “no enhancing effect is substantially observed”. Turning to `[Cl][Mn][Cl]` [Mn ion, MnCl2], the “effect of divalent metal ion” value at G9 polypeptide [1] (setting [5]) was “particularly remarkably enhanced”. Regarding `[Cl][Ni][Cl]` [Ni, NiCl2], at G9 polypeptide [1] (setting [5]), the “effect of divalent metal ion” value was “slight enhancing effect”. On to `[Cl-].[Cl-].[Zn+2]` [Zn, ZnCl2], for which the “effect of divalent metal ion” value on G9 polypeptide [1] (setting [5]) is recorded as “no enhancing effect is substantially observed”.

B1: G9 polypeptide: novel human β1,3-N-acetyl-D-glucosaminyltransferase, FLAG peptide-fused, amino acids 26 to 397 of SEQ ID NO: 2 (SEQ ID NO: 16) (protein, listed as Homo sapiens)
chain: T1 sequence (Q7Z7M8 26-397)
modifications: FLAG peptide
In the case of B1, the “pH of maximum activity” value with G9 polypeptide [3] (HEPES buffer (pH 6.75 to 7.4), FIG. 2A) is on record as roughly 7.0. Moreover, the “pH dependence of activity (in words)” value with G9 polypeptide [3] (sodium cacodylate buffer, pH 6.4 to 7.2, FIG. 2A) is on record as “rises with an increase in pH”.

B2: ovalbumin (protein, UniProt P01012 2-386, looked up)
Ovalbumin: GSIGAASMEFCFDVFKELKVHHANENIFYCPIAIMSALAMVYLGAKDSTRTQINKVVRFDKLPGFGDSIEAQCGTSVNVHSSLRDILNQITKPNDVYSFSLASRLYAEERYPILPEYLQCVKELYRGGLEPINFQTAADQARELINSWVESQTNGIIRNVLQPSSVDSQTAMVLVNAIVFKGLWEKAFKDEDTQAMPFRVTEQESKPVQMMYQIGLFRVASMASEKMKILELPFASGTMSMLVLLPDEVSGLEQLESIINFEKLTEWTSSNVMEERKIKVYLPRMKMEEKYNLTSVLMAMGITDVFSSSANLSGISSAESLKISQAVHAAHAEINEAGREVVGSAEAGVDAASVSEEFRADHPFLFCIKHIATNAVLFFGRCVSP
notes: glycoprotein acceptor substrate manufactured by Sigma
For the molecule B2, the “GlcNAc-transferring activity for glycoprotein acceptor substrate (in words)” value with G9 polypeptide [4] is listed as “relatively weak activity”.
